This experiment has as its target ATX (human His-tagged) (Homo sapiens (Human), UniProt Q13822). In words: Human ATX enzyme inhibition assay (fluorescence quenching, MR121 substrate). Format: biochemical. The method, then:
Human Atx Enzyme Inhibition Assay
Assay working solutions were made as follows:
Assay buffer (50 mM Tris-HCl, 140 mM NaCl, 5 mM KCl, 1 mM CaCl2, 1 mM MgCl2, 0.01% Triton-X-100, pH 8.0;
MR121 substrate solution: MR121 substrate stock solution (800 μM MR121 substrate in DMSO), diluted to 2-5× final concentration in assay buffer.
10 μL of MR121 substrate solution was added ([…] final concentration), mixed 30 times and then incubated for 15 minutes at 30° C.

Setting [1] is: 30 nM ATX, MR121 substrate, 30° C., pH 8.0, read-out: ATX IC50.

SMILES strings stand for the structures. pIC50: −log10 of the molar value. Where two headings read alike, the source gives them in different places.

Turning to `CC(C)(C)C(=O)Nc1cc(C(F)(F)F)cnc1COC(=O)N1CC2=C(C1)CN(C(=O)[C@@H]1CCc3[nH]nnc3C1)C2` [Example 1.00, [3-(2,2-Dimethylpropanoylamino)-5-(trifluoromethyl)pyridin-2-yl]methyl 2-[(5R)-4,5,6,7-tetrahydro-1H-benzotriazole-5-carbonyl]-1,3,4,6-tetrahydropyrrolo[3,4-c]pyrrole-5-carboxylate], under setting [1], the negative-log IC50 (pIC50) was 8.15.
Take `Cn1c(=O)[nH]c2ccc(C(=O)N3CC4=C(CN(C(=O)c5cc(OCC6CCOCC6)nc(C6CC6)c5)C4)C3)cc21` [Example 1.01, 6-(5-(2-cyclopropyl-6-((tetrahydro-2H-pyran-4-yl)methoxy)isonicotinoyl)-1,2,3,4,5,6-hexahydropyrrolo[3,4-c]pyrrole-2-carbonyl)-1-methyl-1H-benzo[d]imidazol-2(3H)-one]: the negative logarithm of the IC50 (pIC50) under setting [1] was 8.10.
In the case of `O=C(c1cc(OCC2CCOCC2)nc(C2CC2)c1)N1CC2=C(C1)CN(C(=O)[C@@H]1CCc3[nH]nnc3C1)C2` [Example 1.02, [2-cyclopropyl-6-(oxan-4-ylmethoxy)pyridin-4-yl]-[5-[(5R)-4,5,6,7-tetrahydro-1H-benzotriazole-5-carbonyl]-1,3,4,6-tetrahydropyrrolo[3,4-c]pyrrol-2-yl]methanone], the pIC50 under setting [1] is 8.30.
Turning to `O=C(c1cc(OCC2CCOCC2)nc(C2CC2)c1)N1CC2=C(C1)CN(C(=O)c1ccc3[nH]nnc3c1)C2` [Example 1.03], the pIC50 under setting [1] was 8.30.
On the same count and under the same terms, for `CC(C)(C)C(=O)Nc1cc(C(F)(F)F)cnc1COC(=O)N1CC2=C(C1)CN(C(=O)c1ccc3[nH]nnc3c1)C2` [Example 1.04, [3-(2,2-dimethylpropanoylamino)-5-(trifluoromethyl)pyridin-2-yl]methyl 2-(1H-benzotriazole-5-carbonyl)-1,3,4,6-tetrahydropyrrolo[3,4-c]pyrrole-5-carboxylate] the value was 8.10; for `O=C(OCc1ccc(OC(F)(F)F)cc1)N1CC2=C(C1)CN(C(=O)c1ccc3[nH]nnc3c1)C2` [Example 1.05, 4-(trifluoromethoxy)benzyl 5-(1H-benzo[d][1,2,3]triazole-5-carbonyl)-3,4,5,6-tetrahydropyrrolo[3,4-c]pyrrole-2(1H)-carboxylate], 8.52.
For the compound `Cc1nnn(Cc2cc(C(F)(F)F)ccc2CCC(=O)N2CC3=C(C2)CN(C(=O)c2ccc4[nH]nnc4c2)C3)n1` [Example 1.06, 1-[5-(1H-benzotriazole-5-carbonyl)-1,3,4,6-tetrahydropyrrolo[3,4-c]pyrrol-2-yl]-3-[2-[(5-methyltetrazol-2-yl)methyl]-4-(trifluoromethyl)phenyl]propan-1-one], the pIC50 under setting [1] is 7.96.
In the case of `CC(C)(C)C(=O)Nc1cc(C(F)(F)F)cnc1COC(=O)N1CCC2=C(CCN(C(=O)c3ccc4[nH]nnc4c3)C2)C1` [Example 1.07, [3-(2,2-dimethylpropanoylamino)-5-(trifluoromethyl)pyridin-2-yl]methyl 6-(1H-benzotriazole-5-carbonyl)-1,3,4,5,7,8-hexahydro-2,6-naphthyridine-2-carboxylate], the pIC50 under setting [1] is 7.77.
As to `CC(C)(C)C(=O)Nc1cc(Cl)c(Cl)nc1COC(=O)N1CC2=C(C1)CN(C(=O)c1ccc3[nH]nnc3c1)C2` [Example 1.08, [5,6-dichloro-3-(2,2-dimethylpropanoylamino)pyridin-2-yl]methyl 2-(1H-benzotriazole-5-carbonyl)-1,3,4,6-tetrahydropyrrolo[3,4-c]pyrrole-5-carboxylate], the negative logarithm of the IC50 (pIC50) under setting [1] was 8.15.
As for `O=C(c1cc(OCC2CCOCC2)nc(C2CC2)c1)N1CC2=C(C1)CN(C(=O)c1ccc3c(O)noc3c1)C2` [Example 1.09, [5-[2-cyclopropyl-6-(oxan-4-ylmethoxy)pyridine-4-carbonyl]-1,3,4,6-tetrahydropyrrolo[3,4-c]pyrrol-2-yl]-(3-hydroxy-1,2-benzoxazol-6-yl)methanone], the negative-log IC50 (pIC50) under setting [1] was 8.40.
As for `O=C1NS(=O)(=O)c2cc(C(=O)N3CC4=C(CN(C(=O)c5cc(OCC6CCOCC6)nc(C6CC6)c5)C4)C3)ccc21` [Example 1.10, 6-[5-[2-cyclopropyl-6-(oxan-4-ylmethoxy)pyridine-4-carbonyl]-1,3,4,6-tetrahydropyrrolo[3,4-c]pyrrole-2-carbonyl]-1,1-dioxo-1,2-benzothiazol-3-one], the negative logarithm of the IC50 (pIC50) under setting [1] was 7.89.
Take `CC(C)(C)C(=O)Nc1cc(C(F)(F)F)cnc1COC(=O)N1CC2=C(C1)CN(C(=O)N1CCc3[nH]nnc3C1)C2` [Example 2.00, [3-(2,2-Dimethylpropanoylamino)-5-(trifluoromethyl)pyridin-2-yl]methyl 2-(1,4,6,7-tetrahydrotriazolo[4,5-c]pyridine-5-carbonyl)-1,3,4,6-tetrahydropyrrolo[3,4-c]pyrrole-5-carboxylate]: the pIC50 under setting [1] is 8.30.
As for `O=C(c1cc(OCC2CCOCC2)nc(C2CC2)c1)N1CC2=C(C1)CN(C(=O)N1CCc3[nH]nnc3C1)C2` [Example 2.02, [2-cyclopropyl-6-(oxan-4-ylmethoxy)pyridin-4-yl]-[5-(1,4,6,7-tetrahydrotriazolo[4,5-c]pyridine-5-carbonyl)-1,3,4,6-tetrahydropyrrolo[3,4-c]pyrrol-2-yl]methanone], the negative-log IC50 (pIC50) under setting [1] is 8.22.
For the compound `NS(=O)(=O)C1CCN(C(=O)N2CC3=C(CN(C(=O)c4cc(OCC5CCOCC5)nc(C5CC5)c4)C3)C2)CC1` [Example 2.04, 1-[2-[2-cyclopropyl-6-(oxan-4-ylmethoxy)pyridine-4-carbonyl]-1,3,4,6-tetrahydropyrrolo[3,4-c]pyrrole-5-carbonyl]piperidine-4-sulfonamide], the pIC50 under setting [1] is 8.26.
For the compound `O=C(c1cc(OCC2CCOCC2)nc(C2CC2)c1)N1CC2=C(C1)CN(C(=O)N1CCc3c(cn[nH]c3=O)C1)C2` [Example 2.08, 6-[2-[2-cyclopropyl-6-(oxan-4-ylmethoxy)pyridine-4-carbonyl]-1,3,4,6-tetrahydropyrrolo[3,4-c]pyrrole-5-carbonyl]-2,5,7,8-tetrahydropyrido[3,4-d]pyridazin-1-one], the negative-log IC50 (pIC50) under setting [1] was 8.00.
With `O=C(c1cc(OCC2CCOCC2)nc(C2CC2)c1)N1CC2=C(C1)CN(C(=O)N1CCc3c(n[nH]c3O)C1)C2` [Example 2.12, [2-cyclopropyl-6-(oxan-4-ylmethoxy)pyridin-4-yl]-[5-(3-hydroxy-2,4,5,7-tetrahydropyrazolo[3,4-c]pyridine-6-carbonyl)-1,3,4,6-tetrahydropyrrolo[3,4-c]pyrrol-2-yl]methanone], the negative logarithm of the IC50 (pIC50) under setting [1] is 6.36.
With `O=C(c1cc(OCC2CCOCC2)nc(C2CC2)c1)N1CC2=C(C1)CN(C(=O)N1CCc3onc(O)c3C1)C2` [Example 2.13, [2-cyclopropyl-6-(oxan-4-ylmethoxy)pyridin-4-yl]-[5-(3-hydroxy-6,7-dihydro-4H-[1,2]oxazolo[4,5-c]pyridine-5-carbonyl)-1,3,4,6-tetrahydropyrrolo[3,4-c]pyrrol-2-yl]methanone], under setting [1], the pIC50 is 7.01.
Consider `O=C1NC(=O)N2CCN(C(=O)N3CC4=C(CN(C(=O)c5cc(OCC6CCOCC6)nc(C6CC6)c5)C4)C3)CC12` (centres unmarked) [Example 2.14, 7-[2-[2-cyclopropyl-6-(oxan-4-ylmethoxy)pyridine-4-carbonyl]-1,3,4,6-tetrahydropyrrolo[3,4-c]pyrrole-5-carbonyl]-5,6,8,8a-tetrahydroimidazo[1,5-a]pyrazine-1,3-dione], for which the pIC50 under setting [1] is 6.91.
For the compound `O=C(OCc1c[nH]nn1)N1CC2=C(C1)CN(C(=O)c1cc(OCC3CCOCC3)nc(C3CC3)c1)C2` [Example 3.00, (1H-1,2,3-Triazol-4-yl)methyl 5-(2-cyclopropyl-6-((tetrahydro-2H-pyran-4-yl)methoxy)isonicotinoyl)-3,4,5,6-tetrahydropyrrolo[3,4-c]pyrrole-2(1H)-carboxylate], the pIC50 under setting [1] is 7.44.
`NS(=O)(=O)C1CCN(C(=O)C2CC3=C(C2)CN(C(=O)c2cc(OCC4CCOCC4)nc(C4CC4)c2)C3)CC1` [Example 4.00, 1-[2-[2-Cyclopropyl-6-(oxan-4-ylmethoxy)pyridine-4-carbonyl]-3,4,5,6-tetrahydro-1H-cyclopenta[c]pyrrole-5-carbonyl]piperidine-4-sulfonamide]: under setting [1], the negative-log IC50 (pIC50) was 7.96.
In turn, `O=C(c1cc(OCC2CCOCC2)nc(C2CC2)c1)N1CC2=C(CC(C(=O)N3CCc4[nH]nnc4C3)C2)C1` [Example 4.01, [2-cyclopropyl-6-(oxan-4-ylmethoxy)pyridin-4-yl]-[5-(1,4,6,7-tetrahydrotriazolo[4,5-c]pyridine-5-carbonyl)-3,4,5,6-tetrahydro-1H-cyclopenta[c]pyrrol-2-yl]methanone] showed a pIC50 of 8.00.
Regarding `O=C(c1cc(OCC2CCOCC2)nc(C2CC2)c1)N1CC2=C(CN(Cc3ccc4[nH]c(=O)oc4c3)C2)C1` [Example 5.00, 6-[[5-[2-Cyclopropyl-6-(oxan-4-ylmethoxy)pyridine-4-carbonyl]-1,3,4,6-tetrahydropyrrolo[3,4-c]pyrrol-2-yl]methyl]-3H-1,3-benzoxazol-2-one], the negative-log IC50 (pIC50) under setting [1] is 9.00.
In the case of `NS(=O)(=O)C1(F)CCN(C(=O)N2CC3=C(CN(C(=O)c4cc(OCC5CCOCC5)nc(C5CC5)c4)C3)C2)CC1` [Example 6.00, 1-[2-[2-Cyclopropyl-6-(oxan-4-ylmethoxy)pyridine-4-carbonyl]-1,3,4,6-tetrahydropyrrolo[3,4-c]pyrrole-5-carbonyl]-4-fluoropiperidine-4-sulfonamide], the negative logarithm of the IC50 (pIC50) under setting [1] is 8.52.

As a reminder, the pIC50 is the IC50 on a negative log10 scale, so that one unit is a factor of ten.
